Experimental data from US11767322B2 (BRISTOL-MYERS SQUIBB COMPANY, priority 2020, dated 2023).

The molecules below were run on MLKL phosphorylation in HT29-L23 human colorectal adenocarcinoma cells (assay: MLKL phosphorylation high-content assay). Details: HT29-L23 cells; necroptosis induced with TNFα, SMAC mimetic and Z-VAD, 6 h; maximal inhibition defined by Nec1s; read-out: pMLKL IC50.
Assay type: cell-based

Row | Compound | IC50
1 | Cc1ccc(-c2ccn3nc(N)nc3c2)c(F)c1C(=O)NCC(F)(F)C(C)(O)c1ccc(F)cc1 (single isomer, unassigned) [Example 62, 3-(2-amino-[1,2,4]triazolo[1,5-a]pyridin-7-yl)-N-(2,2-difluoro-3-(4-fluorophenyl)-3-hydroxybutyl)-2-fluoro-6-methylbenzamide] | 1.1 nM
2 | COc1ccc(-c2ccn3nc(N)nc3c2)c(F)c1C(=O)NCC(F)(F)C(O)c1ccc(F)cc1 (single isomer, unassigned) [Example 124, 3-(2-amino-[1,2,4]triazolo[1,5-a]pyridin-7-yl)-N-(2,2-difluoro-3-(4-fluorophenyl)-3-hydroxypropyl)-2-fluoro-6-methoxybenzamide] | 1.4 nM
3 | [2H]C([2H])([2H])C(O)(c1ccc(F)cc1)C(F)CNC(=O)c1c(Cl)ccc(-c2ccn3nc(N)nc3c2)c1F (single isomer, unassigned) [Example 237, 3-(2-amino-[1,2,4]triazolo[1,5-a]pyridin-7-yl)-6-chloro-2-fluoro-N-(2-fluoro-3-(4-fluorophenyl)-3-hydroxybutyl-4,4,4-d3)benzamide] | 86 nM
4 | Nc1nc2cc(-c3ccc(Cl)c(C(=O)NCC(F)(F)C(O)c4ccc(Cl)c(Cl)n4)c3F)ccn2n1 (single isomer, unassigned) [Example 271] | 1.8 nM

Same assay, conditions: Homo sapiens, 6 h, HT29-L23 cells; necroptosis induced with TNFα, SMAC mimetic and Z-VAD, 6 h; maximal inhibition defined by Nec1s; read-out: pMLKL IC50

Row | Compound | IC50
5 | C[C@@](O)(c1ccc(F)cc1)[C@H](F)CNC(=O)c1c(Cl)ccc(-c2ccn3nc(N)nc3c2)c1F [Example 210, 3-(2-amino-[1,2,4]triazolo[1,5-a]pyridin-7-yl)-6-chloro-2-fluoro-N-((2R,3R)-2-fluoro-3-(4-fluorophenyl)-3-hydroxybutyl)benzamide] | 2.5 nM
6 | C[C@](O)(c1ccc(F)cc1)[C@H](F)CNC(=O)c1c(Cl)ccc(-c2ccn3nc(N)nc3c2)c1F [Example 212, 3-(2-amino-[1,2,4]triazolo[1,5-a]pyridin-7-yl)-6-chloro-2-fluoro-N-((2R,3S)-2-fluoro-3-(4-fluorophenyl)-3-hydroxybutyl)benzamide] | 0.8 nM
7 | C[C@](O)(c1ccc(F)cc1)[C@@H](F)CNC(=O)c1c(Cl)ccc(-c2ccn3nc(N)nc3c2)c1F [Example 209, 3-(2-amino-[1,2,4]triazolo[1,5-a]pyridin-7-yl)-6-chloro-2-fluoro-N-((2S,3S)-2-fluoro-3-(4-fluorophenyl)-3-hydroxybutyl)benzamide] | 80 nM
8 | Cc1c(C(=O)NCC(F)(F)C(O)c2ccc(F)cc2)cc(-c2ccn3nc(N)nc3c2)c(F)c1F (single isomer, unassigned) [Example 106, 5-(2-amino-[1,2,4]triazolo[1,5-a]pyridin-7-yl)-N-(2,2-difluoro-3-(4-fluorophenyl)-3-hydroxypropyl)-3,4-difluoro-2-methylbenzamide] | 0.5 nM
9 | Nc1nc2cc(-c3ccc(F)c(C(=O)NCC(F)(F)[C@H](F)c4ccc(F)cc4)c3F)ccn2n1 [Example 287, (R)-3-(2-amino-[1,2,4]triazolo[1,5-a]pyridin-7-yl)-2,6-difluoro-N-(2,2,3-trifluoro-3-(4-fluorophenyl)propyl)benzamide] | 0.8 nM
10 | Cc1ccc(-c2ccn3nc(N)nc3c2)c(F)c1C(=O)NCC(F)(F)C(C)(O)c1ccc(F)cc1 (single isomer, unassigned) [Example 61, 3-(2-amino-[1,2,4]triazolo[1,5-a]pyridin-7-yl)-N-(2,2-difluoro-3-(4-fluorophenyl)-3-hydroxybutyl)-2-fluoro-6-methylbenzamide] | 0.8 nM
11 | Nc1nc2cc(-c3ccc(C(F)(F)F)c(C(=O)NCC(F)(F)[C@@H](F)c4ccc(F)cc4)c3F)ccn2n1 [Example 286, (S)-3-(2-amino-[1,2,4]triazolo[1,5-a]pyridin-7-yl)-2-fluoro-N-(2,2,3-trifluoro-3-(4-fluorophenyl)propyl)-6-(trifluoromethyl)benzamide] | 1 nM

Same assay, conditions: Homo sapiens, 6 h, read-out: pMLKL IC50, HT29-L23 cells; necroptosis induced with TNFα, SMAC mimetic and Z-VAD, 6 h; maximal inhibition defined by Nec1s

Row | Compound | IC50
12 | Cc1ccc(-c2ccn3nc(N)nc3c2)c(F)c1C(=O)NCCC(O)C1CCCCC1 (centres unmarked) [Example 40, 3-(2-amino-[1,2,4]triazolo[1,5-a]pyridin-7-yl)-N-(3-cyclohexyl-3-hydroxypropyl)-2-fluoro-6-methylbenzamide] | 1.5 nM
13 | [2H]C([2H])([2H])c1ccc(-c2ccn3nc(N)nc3c2)c(F)c1C(=O)NCC(F)(F)C(C)(O)c1ccc(F)cc1 (single isomer, unassigned) [Example 241, 3-(2-amino-[1,2,4]triazolo[1,5-a]pyridin-7-yl)-N-(2,2-difluoro-3-(4-fluorophenyl)-3-hydroxybutyl)-2-fluoro-6-(methyl-d3)benzamide] | 1.2 nM
14 | COc1ccc(C(O)C(F)(F)CNC(=O)c2c(Cl)ccc(-c3ccn4nc(N)nc4c3)c2F)cc1 (single isomer, unassigned) [Example 184, 3-(2-amino-[1,2,4]triazolo[1,5-a]pyridin-7-yl)-6-chloro-N-(2,2-difluoro-3-hydroxy-3-(4-methoxyphenyl)propyl)-2-fluorobenzamide] | 0.4 nM

Same assay, conditions: Homo sapiens, Table 23, representative compounds from WO2018/148626; read-out: pMLKL IC50

Row | Compound | IC50
15 | CC(CCNC(=O)c1cc(-c2ccn3nc(N)nc3c2)cnc1Cl)c1ccccc1 (centres unmarked) [Example 170] | 48 nM
16 | COc1ncc(-c2ccn3nc(N)nc3c2)cc1C(=O)NC(C)CCc1ccccc1 (centres unmarked) [Example 101] | 82 nM

Same assay, conditions: read-out: pMLKL IC50; HT29-L23 cells; necroptosis induced with TNFα, SMAC mimetic and Z-VAD, 6 h; maximal inhibition defined by Nec1s

Row | Compound | IC50
17 | Nc1nc2cc(-c3ccc(Cl)c(C(=O)NCC(F)(F)C(O)c4cccc(Cl)c4)c3F)ccn2n1 (centres unmarked) [Example 192, 3-(2-amino-[1,2,4]triazolo[1,5-a]pyridin-7-yl)-6-chloro-N-(3-(3-chlorophenyl)-2,2-difluoro-3-hydroxypropyl)-2-fluorobenzamide] | 1.2 nM
18 | Nc1nc2cc(-c3ccc(Cl)c(C(=O)NCC(F)(F)C(O)c4ccc(C(F)(F)F)cc4F)c3F)ccn2n1 (centres unmarked) [Example 165, 3-(2-amino-[1,2,4]triazolo[1,5-a]pyridin-7-yl)-6-chloro-N-(2,2-difluoro-3-(2-fluoro-4-(trifluoromethyl)phenyl)-3-hydroxypropyl)-2-fluorobenzamide] | 2.8 nM
19 | Nc1nc2cc(-c3ccc(Cl)c(C(=O)NCC(F)(F)C(O)c4cccc(F)c4)c3F)ccn2n1 (single isomer, unassigned) [Example 168, 3-{2-amino-[1,2,4]triazolo[1,5-a]pyridin-7-yl}-6-chloro-N-[2,2-difluoro-3-(3-fluorophenyl)-3-hydroxypropyl]-2-fluorobenzamide] | 1.1 nM

These molecules were tested against T1, His-GST-TVMV-hRIPK1(1-324) (Homo sapiens, UniProt Q13546) (assay: biochemical). Details: HTRF probe displacement, 1 h at rt; read-out: RIPK1 IC50.
T1 construct: The coding region of human RIPK1(1-324) flanked by NdeI site at 5′ end; made in house; host or cells: Spodoptera frugiperda Sf9 insect cells (baculovirus, Bac-to-Bac)
T1 sequence (Q13546 1-324): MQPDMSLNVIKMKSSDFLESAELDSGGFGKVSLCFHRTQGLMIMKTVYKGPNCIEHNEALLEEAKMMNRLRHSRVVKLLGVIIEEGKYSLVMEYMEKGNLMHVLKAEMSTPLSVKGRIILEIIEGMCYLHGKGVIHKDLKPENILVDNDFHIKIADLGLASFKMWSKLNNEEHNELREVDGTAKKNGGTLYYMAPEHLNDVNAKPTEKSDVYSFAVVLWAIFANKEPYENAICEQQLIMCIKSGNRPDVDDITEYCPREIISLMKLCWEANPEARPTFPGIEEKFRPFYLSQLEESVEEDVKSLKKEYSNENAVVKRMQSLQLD
Assay type: binding

Row | Compound | IC50
20 | Cc1ccc(-c2ccn3nc(N)nc3c2)c(F)c1C(=O)NCCC(O)C1CCCCC1 (centres unmarked) [Example 40, 3-(2-amino-[1,2,4]triazolo[1,5-a]pyridin-7-yl)-N-(3-cyclohexyl-3-hydroxypropyl)-2-fluoro-6-methylbenzamide] | 3.8 nM
21 | Nc1nc2cc(-c3ccc(Cl)c(C(=O)NCC(F)(F)C(O)c4cccc(Cl)c4)c3F)ccn2n1 (centres unmarked) [Example 192, 3-(2-amino-[1,2,4]triazolo[1,5-a]pyridin-7-yl)-6-chloro-N-(3-(3-chlorophenyl)-2,2-difluoro-3-hydroxypropyl)-2-fluorobenzamide] | 3.5 nM
22 | [2H]C([2H])([2H])c1ccc(-c2ccn3nc(N)nc3c2)c(F)c1C(=O)NCC(F)(F)C(C)(O)c1ccc(F)cc1 (single isomer, unassigned) [Example 241, 3-(2-amino-[1,2,4]triazolo[1,5-a]pyridin-7-yl)-N-(2,2-difluoro-3-(4-fluorophenyl)-3-hydroxybutyl)-2-fluoro-6-(methyl-d3)benzamide] | 10 nM
23 | Nc1nc2cc(-c3ccc(Cl)c(C(=O)NCC(F)(F)C(O)c4ccc(C(F)(F)F)cc4F)c3F)ccn2n1 (centres unmarked) [Example 165, 3-(2-amino-[1,2,4]triazolo[1,5-a]pyridin-7-yl)-6-chloro-N-(2,2-difluoro-3-(2-fluoro-4-(trifluoromethyl)phenyl)-3-hydroxypropyl)-2-fluorobenzamide] | 1.6 nM
24 | Nc1nc2cc(-c3ccc(Cl)c(C(=O)NCC(F)(F)C(O)c4cccc(F)c4)c3F)ccn2n1 (single isomer, unassigned) [Example 168, 3-{2-amino-[1,2,4]triazolo[1,5-a]pyridin-7-yl}-6-chloro-N-[2,2-difluoro-3-(3-fluorophenyl)-3-hydroxypropyl]-2-fluorobenzamide] | 0.3 nM
25 | Cc1ccc(C(O)C(F)(F)CNC(=O)c2c(Cl)ccc(-c3ccn4nc(N)nc4c3)c2F)cc1 (centres unmarked) [Example 172, 3-(2-amino-[1,2,4]triazolo[1,5-a]pyridin-7-yl)-6-chloro-N-(2,2-difluoro-3-hydroxy-3-(p-tolyl)propyl)-2-fluorobenzamide] | 1.3 nM
26 | Nc1nc2cc(-c3ccc(Cl)c(C(=O)NCC(F)(F)C(O)C4CCC(F)(F)CC4)c3F)ccn2n1 (centres unmarked) [Example 256, 3-(2-amino-[1,2,4]triazolo[1,5-a]pyridin-7-yl)-6-chloro-N-(3-(4,4-difluorocyclohexyl)-2,2-difluoro-3-hydroxypropyl)-2-fluorobenzamide] | 3.2 nM
27 | Cc1ccc(-c2ccn3nc(N)nc3c2)c(F)c1C(=O)NCCC(O)c1ccc(Cl)c(Cl)c1 (centres unmarked) [Example 32, 3-(2-amino-[1,2,4]triazolo[1,5-a]pyridin-7-yl)-N-(3-(3,4-dichlorophenyl)-3-hydroxypropyl)-2-fluoro-6-methylbenzamide] | 2.2 nM
28 | COc1c(-c2ccc(C)c(C(=O)NCC[C@H](O)c3ccc(Cl)cc3)c2F)ccn2nc(N)nc12 [compound 133] | 3.8 nM
29 | Cc1ccc(-c2ccn3nc(N)nc3c2)c(F)c1C(=O)NCC(F)(F)C(C)(O)c1ccc(F)cc1 (racemic) [Example 18, 3-(2-amino-[1,2,4]triazolo[1,5-a]pyridin-7-yl)-N-(2,2-difluoro-3-(4-fluorophenyl)-3-hydroxybutyl)-2-fluoro-6-methylbenzamide] | 8.9 nM
30 | CC(O)(c1ccc(F)cc1)C(F)(F)CNC(=O)c1c(Cl)ccc(-c2ccn3nc(N)nc3c2)c1F (centres unmarked) [Example 87, 3-(2-amino-[1,2,4]triazolo[1,5-a]pyridin-7-yl)-6-chloro-N-(2,2-difluoro-3-(4-fluorophenyl)-3-hydroxybutyl)-2-fluorobenzamide] | 8.6 nM
31 | [2H]C([2H])([2H])c1cccc(C(O)C(F)(F)CNC(=O)c2c(C([2H])([2H])[2H])ccc(-c3ccn4nc(N)nc4c3)c2F)c1F (single isomer, unassigned) [Example 206, 3-(2-amino-[1,2,4]triazolo[1,5-a]pyridin-7-yl)-N-(2,2-difluoro-3-(2-fluoro-3-(methyl-d3)phenyl)-3-hydroxypropyl)-2-fluoro-6-(methyl-d3)benzamide] | 7.7 nM

Same assay, conditions: Table 23, representative compounds from WO2018/148626; read-out: RIPK1 IC50

Row | Compound | IC50
32 | COc1ncc(-c2ccn3nc(N)nc3c2)cc1C(=O)NCC[C@H](O)c1ccc(Cl)cc1 [Example 157] | 59 nM
